System: hα3β4 nAChRs
Type: cell-based, human

Row | Substance | inhibition of ACh-evoked current amplitude | activity at hα3β4 nAChRs compared with wild-type Czon1107 (in words)
1 | Czon1107-P7R: Arg-scan analogue of Czon1107 (GFRSPCRPFC) | ~ 50% | –
2 | Czon1107-P8R: Arg-scan analogue of Czon1107 (GFRSPCPRFC) | – | No significant change in activity
3 | Czon1107-G1R: Arg-scan analogue of Czon1107 (RFRSPCPPFC) | ~ 50% | –
4 | Czon1107-P5R: Arg-scan analogue of Czon1107 (GFRSRCPPFC) | – | No significant change in activity
5 | Czon1107-F9A: Ala-scan analogue of Czon1107 (GFRSPCPPAC) | – | slight potency decrease

Reference: publication PMC9409646 (Marine Drugs, 2022)
